This note sets out measurements from patent publication EP0777471B1, “INHIBITION OF LEUKOTRIENE BIOSYNTHESIS WITH UREA DERIVATIVES” (MINNESOTA MINING AND MANUFACTURING COMPANY, priority 1994, dated 1996).

For orientation: IC50 means the point on the concentration scale where inhibition reaches its midpoint. The low end stands for higher potency, the high end for lower potency. Usually inhibition stands for the percentage by which the read-out fell short of the control.

Where “and” joins values, the source holds several entries; their conditions need not be identical. Identical values can stand only once. Like-named read-outs stand apart in the source and are kept apart here.

The subject of assay [1] is production of Leukotriene C4 in mouse peritoneal macrophages. The assay can be described thus: In vitro mouse peritoneal macrophage Leukotriene C4 inhibition (zymosan-stimulated, LTC4 radioimmunoassay). The note with it: Zymosan 50 µg/mL. The format is cell-based. The protocol:
The test method described below measures the ability of compounds to inhibit the production of Leukotriene C4 in mouse peritoneal macrophages.
Mice (female, CD-1, weighing 25 g) are euthanized by exposure to carbon dioxide. The peritoneal cavity is exposed by peeling back the abdominal skin. A 5 mL portion of media (M199 containing 1% fetal bovine serum, 100 units/mL of penicillin, 100 µg/mL of streptomycin, 20 units/mL of heparin and no glutamine) is injected into the exposed peritoneal cavity of each mouse. The lavage fluid is removed and pooled to yield approximately1 X 10^6 macrophages/mL. A 2 mL portion of lavage fluid is added to each well of a 24 well sterile multidish and the macrophages are allowed to adhere to the plate for 2 hours at 37°C in a 5% carbon dioxide atmosphere. The media is removed and each well is washed with 2 mL of phosphate buffered saline (PBS). A 1 mL portion of media, without heparin, but containing 5 µCi/mL of 3H-myoinositol is added to each well and the plates are incubated overnight at 37°C in a 5% carbon dioxide atmosphere. The media is removed and the cells are washed twice with 2 mL portions of PBS. A 1 mL portion of Puck's saline formulation A containing 1 mM calcium chloride, 1 mM magnesium chloride and 10 mM lithium chloride is added to each well. (The Puck's formulation is made first as a 10X solution which contains 4 g of potassium chloride, 80 g of sodium chloride and 10 g of glucose per liter. The Puck's saline formulation A is made using 10 mL of the 10X Puck's formulation, 0.47 mL of 7.5% sodium bicarbonate and 2 mL of 1M N-2-hydroxyethylpiperazine-N'-2-ethanesulfonic acid per 100 mL.)
Compounds are dissolved in dimethyl sulfoxide. Compounds are tested at concentrations of 10, 1 and 0.1 µM. Each concentration is tested in duplicate.
A 1 µL portion of compound solution or vehicle (DMSO) is added to each well and the plates are incubated for 15 minutes at 37°C in a 5% carbon dioxide atmosphere. Zymosan is then added to provide a final concentration of 50 µg/mL in each well and the plate is incubated for 1 to 2 hours at 37°C in a 5% carbon dioxide atmosphere.
Following incubation 200 µL portions of media are transferred to 12 X 75 mm tubes. The tubes are either assayed immediately or stored at -20°C until they can be assayed.
The media is assayed for the presence of Leukotriene C4 by radioimmunoassay which is performed according to the manufacturer's (Advanced Magnetics; Cambridge, MA) instructions.

Assay [2] has as its system production of Leukotriene B4. The assay can be described thus: Rat ex vivo Leukotriene B4 inhibition (oral dosing, blood challenged with A23187). The format is in vivo, Rats. The note with it: 50 mg/Kg, two hours post dose. Here is the method: The test method described below measures the ability of a compound when administered orally to rats to inhibit the production of Leukotriene B4 in their blood which is drawn and challenged.
Rats (CD, male, non-fasted, 250 g) are lightly anesthetized with carbon dioxide and an approximately 0.75 mL sample of whole blood is obtained via cardiac puncture. The sample is dispensed into 12 X 75 mm polypropylene tubes containing 8-10 µL of 10,000 units/mL heparin, mixed and then maintained on ice. The rats are allowed to recover approximately one hour then dosed orally with compound dissolved in PEG 400 at a 5 mL/Kg volume. Five (5) rats are utilized per group. Two (2) hours post dose the rats are again anesthetized with carbon dioxide and the blood sampled again via cardiac puncture.
Duplicate 200 µL portions of blood are added to 1.0 mL polypropylene tubes. A 10 µL portion of 1mM A23187 Calcium Ionophore in dimethyl sulfoxide/Tris buffer is added to each tube. The tubes are gently vortexed then incubated in a 37°C water bath for 30 minutes. The tubes are then centrifuged at 4000 rpm for 10 minutes. 50 µL portions of plasma are transferred to 1.0 mL tubes containing 200 µL of methanol. The tubes are vortexed then placed in the freezer overnight.
The tubes are removed from the freezer then centrifuged at 4000 rpm for 10 minutes. […] portions of the methanol/plasma supernatant and 10 µL methanol dilutions of LTB4 standard curve are transferred to 96 well v-bottom microtiter plates. The plates are vacuum dried at 40°C. A 40 µL portion of LTB4 radioimmunoassay buffer is added to each well. The plate is bath sonicated for 5 minutes then assayed according to the manufacturer's (Advanced Magnetics; Cambridge, MA) instructions. Percent inhibition values are obtained by comparing the level of LTB4 in the post-dose samples to the level in the pre-dose samples according to the equation below. % Inhibition =((LTB4 pre-dose) - (LTB4 post-dose))/((LTB4 pre-dose))X 100 [formula]

For assay [3], the system named is production of Leukotriene B4 (LTB4). The assay can be described thus: Dog ex vivo Leukotriene B4 inhibition (oral dosing, blood challenged with calcium ionophore). It counts as in vivo, beagle dogs. The note with it: each entry one dog, negative = stimulation of LTB4 production; for inhibition at 5 mg/kg: Canis lupus familiaris, po. Here is the method: The test method described below measures the ability of a compound when administered orally to dogs to inhibit the production of Leukotriene B4 (LTB4) in their blood which is drawn and challenged at selected time points.
The test is conducted in beagle dogs (male and female; about 10 Kg). Prior to starting, the neck area of the beagle is shaved to allow easy access to the jugular vein. A 3-4 mL sample of blood is drawn from the jugular vein into a heparinized vacutainer. The dog is then dosed using a tube long enough to reach its stomach. The compound is dissolved in PEG 400 at a concentration such that the appropriate dose can be administered in approximately 5 mL. Immediately after the compound is given, a flush using 5 mL of vehicle is given to rinse the dosing tube. At selected time points following the dose, a 3-4 mL sample of blood is drawn.
The blood samples that have been drawn are challenged as soon as possible. A 0.5 mL portion of blood is aliquoted into 3 tubes (1 mL microtiter tubes). A 1 µL portion of 25 mM calcium ionophore in dimethyl sulfoxide is added to 2 of the tubes. A 1 µL portion of dimethyl sulfoxide is added to the third tube. The tubes are lightly mixed then placed in a 37°C water bath for 30 minutes. The tubes are centrifuged at 11,000 rpm for 3 minutes and the plasma supernatant is transferred to clean tubes. A 50 µL portion of this plasma is added to a I mL microtiter tube containing 200 µL of methanol. The tubes are placed in the freezer at -20°C for at least 1 hour then centrifuged at 2000 rpm for 10 minutes. A 10 µL portion of the methanol supematant is dried under vacuum at ambient temperature and then reconstituted in LTB4 buffer. The amount of LTB4 in the sample is determined by radioimmunoassay performed according to the manufacturer's (Advanced Magnetics; Cambridge, MA) instructions. Percent inhibition values are obtained by comparing the level of LTB4 in the post-dose sample to the level in the pre-dose sample according to the equation below. % Inhibition =((LTB4 predose) - (LTB4 postdose))/((LTB4 predose))X 100 [formula]
A number of the compounds that are useful in the practice of the method of the invention were tested. The results are shown in Table 15 below where each entry represents the results from one dog. A negative number indicates stimulation of LTB4 production. All compounds were tested at a dose of 5 mg/Kg.

`CN(O)C(=O)Nc1ccc([N+](=O)[O-])cc1` [Compound 13, 1-hydroxy-1-methyl-3-(4-nitrophenyl)urea] displayed a half-maximal inhibitory concentration (IC50) in assay [1] of 1000 nM. Further, in assay [2], the “%I” value came to 23%.

Consider `CN(O)C(=O)Nc1ccc(Oc2ccccc2)cc1` [Compound 14, 1-hydroxy-1-methyl-3-(4-phenoxyphenyl)urea], for which the IC50 in assay [1] was below 1000 nM.

`CSc1ccc(NC(=O)N(O)C(C)C)cc1` [Compound 15, 1-Hydroxy-1-(1-methylethyl)-3-[4-(methylthio)phenyl]urea] registered an IC50 in assay [1] below 100 nM. In addition, the “% Inhibition 1 hour” value in assay [3] (5 mg/Kg, 1 hour post dose) is 95%. In addition, the “% Inhibition 2 hour” value in assay [3] (5 mg/Kg, 2 hour post dose) is given as 98%. In assay [3] (5 mg/Kg, 4 hour post dose), the “% Inhibition 4 hour” value was 98% and 96% and 31%. In addition, the “% Inhibition 6 hour” value in assay [3] (5 mg/Kg, 6 hour post dose) is 84% and 14%. Also, the inhibition at 5 mg/kg in assay [3] (1 h, 1 hour post dose, read-out: % Inhibition 1 hour) amounted to 100%; in assay [3] (2 h, 2 hour post dose, read-out: % Inhibition 2 hour), 99%.

As for `CC(C)N(O)C(=O)Nc1ccc([N+](=O)[O-])cc1` [Compound 30, 1-hydroxy-1-(1-methylethyl)-3-(4-nitrophenyl)urea], in assay [1], the IC50 turned out to be 300 nM. Moreover, in assay [2], the “%I” value was 13%.

On to `CSc1cccc(NC(=O)N(O)C2CCCCC2)c1` [Compound 32, 1-Cyclohexyl-1-hydroxy-3-[3-(methylthio)phenyl]urea], for which the midpoint of inhibition in assay [1], the IC50, lay at 400 nM. Moreover, in assay [2], the “%I” value is given as 28%.

In turn, `O=C(Nc1ccccc1)N(O)C1CCCCCCC1` [Compound 36, 1-Cyclooctyl-1-hydroxy-3-phenylurea] came in with an IC50 in assay [1] of 200 nM. The “%I” value in assay [2] is 7%.

As to `COc1ccc(NC(=O)N(O)C2CCCCCCC2)cc1` [Compound 37, 1-Cyclooctyl-1-hydroxy-3-(4-methoxyphenyl)urea], the IC50 in assay [1] was below 1000 nM. For the same compound, the “%I” value in assay [2] stood at 7%.

Turning to `O=C(Nc1ccc([N+](=O)[O-])cc1)N(O)C1CCCCCCC1` [Compound 38, 1-Cyclooctyl-1-hydroxy-3-(4-nitrophenyl)urea], in assay [1], the IC50 is below 1000 nM. Also, the “%I” value in assay [2] amounted to 2%.

`CCC(CC)N(O)C(=O)Nc1ccc(SC)cc1` [Compound 39, 1-(1-Ethylpropyl)-1-hydroxy-3-[4-(methylthio)phenyl]urea]: the IC50 in assay [1] was below 1000 nM. Also, the “%I” value in assay [2] stood at 59%.

As to `CCC(CC)N(O)C(=O)Nc1ccc([N+](=O)[O-])cc1` [Compound 40, 1-(1-Ethylpropyl)-1-hydroxy-3-(4-nitrophenyl)urea], in assay [1], the IC50 was determined as 1000 nM. The “%I” value in assay [2] amounted to 0%.

Take `CC(CCN(O)C(=O)Nc1ccccc1)CC(C)(C)C` (stereo not drawn) [Compound 49, 1-hydroxy-3-phenyl-1-(3,5,5-trimethylhexyl)urea]: in assay [1], the IC50 is below 1000 nM. In assay [2], the “%I” value turned out to be 13%.

As to `CCOC(=O)CCCCCN(O)C(=O)Nc1ccccc1` [Compound 50, 6-(1-hydroxy-3-phenylureido)-1-hexanoic acid ethyl ester], the IC50 in assay [1] is below 1000 nM. Besides, the “%I” value in assay [2] is listed as 6%.

As to `O=C(Nc1ccccc1)N(O)C1CCCCCC1` [Compound 51, 1-cycloheptyl-1-hydroxy-3-phenylurea], the IC50 in assay [1] stood at 600 nM. Also, the “%I” value in assay [2] worked out at 22%.

On to `CCCCCCCCN(O)C(=O)Nc1ccccc1` [Compound 52, 1-hydroxy-1-octyl-3-phenylurea], for which the IC50 in assay [1] is below 100 nM. The “%I” value in assay [2] is listed as 9%.

`CCCCCCCCCCCCN(O)C(=O)Nc1ccccc1` [Compound 53, 1-dodecyl-1-hydroxy-3-phenylurea] had an IC50 in assay [1] below 1000 nM. The “%I” value in assay [2] was 1%.

Consider `CCCC(C)N(O)C(=O)Nc1ccccc1` (stereo not drawn) [Compound 68, 1-Hydroxy-1-(1-methylbutyl)-3-phenylurea], for which the half-maximal inhibitory concentration (IC50) in assay [1] is below 1000 nM.

On to `CCC(CC)N(O)C(=O)Nc1ccc(Oc2ccccc2)cc1` [Compound 72, 1-Hydroxy-1-(1-ethylpropyl)-3-(4-phenoxyphenyl)urea], for which the IC50 in assay [1] was below 1000 nM.

`CCC(CC)N(O)C(=O)Nc1cc(C(F)(F)F)cc(C(F)(F)F)c1` [Compound 73, 1-Hydroxy-1-(1-ethylpropyl)-3-(3,5-bis(trifluoromethyl)phenyl)urea] yielded an IC50 in assay [1] below 1000 nM.

Turning to `CCC(CC)N(O)C(=O)Nc1ccc(C(=O)c2ccccc2)cc1` [Compound 79, 1-Hydroxy-1-(1-ethylpropyl)-3-(4-benzoylphenyl)urea], in assay [1], the IC50 is below 1000 nM.

For `CCC(CC)N(O)C(=O)Nc1ccc(OCc2ccccc2)cc1` [Compound 80, 1-Hydroxy-1-(1-ethylpropyl)-3-(4-benzyloxyphenyl)urea], the IC50 in assay [1] is below 1000 nM.

For the compound `CCC(CC)N(O)C(=O)Nc1ccc(OCC2CCCCC2)cc1` [Compound 81, 1-Hydroxy-1-(1-ethylpropyl)-3-[4-(cyclohexylmethoxy)phenyl]urea], the IC50 in assay [1] is below 1000 nM.

For `CCC(CC)N(O)C(=O)Nc1ccc(OCCCc2ccccc2)cc1` [Compound 82, 1-Hydroxy-1-(1-ethylpropyl)-3-[4-(3-phenylpropyloxy)phenyl]urea], the IC50 in assay [1] was below 1000 nM.

In turn, `CCC(CC)N(O)C(=O)Nc1ccc(-c2ccccc2)cc1` [Compound 83, 1-Hydroxy-1-(1-ethylpropyl)-3-(biphenyl-4-yl)urea] registered an IC50 in assay [1] below 1000 nM.
